Reference: publication PMC12655682, “Screening-Identified Oxazole-4-Carboxamide KB-2777 Exhibits In Vitro Anti-Coronavirus Activity” (Pharmaceutics, 2025)
Entries after “also recorded” stand apart in the source; their conditions may differ.

Tests used:
[1] = system: mock-infected cells (LLC-MK2, Vero E6); assay: EZ-Cytox WST cell viability in mock-infected cells under the same dosing as RT-qPCR; type: cell-based; conditions: tested concentration range (≤25 µM)
Experimental: (§1) Cells were seeded at 2 × 10^4 cells per well in 96-well plates and, after overnight attachment, exposed to test compounds for 72 h in maintenance medium. The final DMSO concentration was ≤0.1% (v/v) for all conditions, including vehicle controls. Cell viability was quantified using EZ-Cytox WST reagent (DoGenBio, Seoul, Republic of Korea) according to the manufacturer’s instructions; absorbance was read at 450 nm on a SpectraMax i3x microplate reader (Molecular Devices, San Jose, CA, USA). Viability for each well was normalized to the mean of vehicle-treated (mock) controls on the same plate and expressed as percent viability. Each condition included technical replicates (n = 3) per experiment. Concentration–response data from ≥3 independent experiments were fit to a four-parameter logistic (4PL) model in GraphPad Prism 10.1.2 (GraphPad Software, San Diego, CA, USA) (log10-transformed concentrations; bottom and top unconstrained).
We advanced KB-2777, the series member with the highest selectivity index (SI), to evaluate antiviral activity against α-coronaviruses (HCoV-NL63, PEDV) and a β-coronavirus (HCoV-OC43) by RT-qPCR. […] Representative cytopathic effect (CPE) micrographs (KB-2777 20 µM vs. virus-only) for HCoV-NL63, HCoV-OC43, and PEDV are provided in the Supplementary Information (Figure S16).

HCoV-OC43 = assay: Extracellular viral RNA by RT-qPCR of supernatants, HCoV-OC43/Vero E6; type: cell-based, Human coronavirus OC43; conditions: Betacoronavirus 1, Vero C1008; HCoV-OC43/Vero E6, 72 h post-infection, n = 3
Experimental: At 72 h post-infection, 100–200 μL of culture supernatant was collected. Viral RNA was extracted using the QIAamp Viral RNA Mini Kit (Qiagen, Hilden, Germany)according to the manufacturer’s instructions and quantified by one-step RT-qPCR on a real-time thermocycler.
EC50 values were determined from concentration–response curves generated by 2-fold serial dilutions, with at least four concentration points per curve. Each measurement was performed in triplicate technical replicates. Unless otherwise indicated, data are presented as mean ± SEM from three independent biological experiments (n = 3).
For absolute quantification, synthetic DNA (oligonucleotide) standards corresponding to the NL63, OC43, and PEDV amplicons were used. Ten-fold serial dilutions were prepared to generate standard curves. Ct values were interpolated against the curves to obtain gene copies per reaction and converted to genome copies per mL by accounting for extraction and elution volumes and the qPCR input volume.

HCoV-NL63 = assay: Time-of-addition, CPE-based cell protection (EZ-Cytox), HCoV-NL63/LLC-MK2; parameters: species or system Human coronavirus NL63; conditions: HCoV-NL63, 5 µM and 20 µM, 48 h post-infection
Experimental: For antiviral activity, cells in 96-well plates were infected and treated with test compounds as indicated and incubated for 48–72 h. Cell viability was quantified by WST (EZ-Cytox) at 450 nm on the same reader. Cytoprotective effect was calculated by normalizing to infected DMSO controls and converting to percent protection: % Protection = ((V_drug + virus − V_virus-only)/(V_mock − V_virus-only)) × 100. […]
Unless otherwise specified, infections were carried out at 100 TCID50 per well with 1 h adsorption at 37 °C, and compounds were used at 20 µM. Primary readout was S protein IFA at 48 h; EZ-Cytox and TCID50 at 48 h for the same regimens are provided in Supplementary Data (Figures S14 and S15). […]
Cell protection (%) was calculated relative to the DMSO control. […] (b) Infectious progeny released under the same TOA conditions, quantified as log10(TCID₅₀/mL) from culture supernatants (see Methods). […]
Figure S15. […] Cell protection (%) was calculated relative to the DMSO control. […]
Statistics: one-way ANOVA with Dunnett’s multiple comparisons vs DMSO; *P<0.05, **P<0.01, ***P<0.001, ****P<0.0001. (b) Infectious progeny released under the same TOA conditions, quantified as log₁₀(TCID₅₀/mL) from culture supernatants by endpoint dilution on Vero E6 indicator cells (Spearman–Kärber method; see Methods). […]

[2] = system: IL6, ISG15, IFNB1, NQO1, HMOX1 (HO-1), GCLM, DDIT3 (CHOP), ATF4, XBP1 transcripts; assay: Targeted host-response transcript profiling (two-step RT-qPCR) in MRC-5 cells; type: cell-based, human; conditions: n = 3
Experimental: Total RNA was isolated using the RNeasy kit (QIAGEN, Hilden, Germany) according to the manufacturer’s instructions. cDNA was synthesized with the Tetro cDNA Synthesis Kit (Meridian Bioscience, Memphis, TN, USA) following the manufacturer’s protocol. Quantitative PCR was performed using Luna Universal qPCR Master Mix, SYBR (New England Biolabs, Ipswich, MA, USA). Target genes included IL6, ISG15, IFNB1, NQO1, HMOX1 (HO-1), GCLM, DDIT3 (CHOP), ATF4, and XBP1; primer sequences are listed in Table S3. ACTB served as the internal control. Expression changes were calculated as −ΔΔCt (log2 fold change) relative to time-matched calibrators (OC43 only for infected comparisons; DMSO for uninfected). Each condition included n = 3 biological replicates. At each time point, data were analyzed independently in GraphPad Prism 10.1.2 (GraphPad Software, San Diego, CA, USA) using an ordinary two-way ANOVA with factors gene (9 levels) and treatment (2 levels). Significance marks reflect within-gene simple-effects comparisons (treatment) with Tukey’s multiple-comparisons adjustment (two-tailed, α = 0.05). Time was not included as a factor; no inferences were made across time points.

[3] = Cytotoxicity (EZ-Cytox WST) in LLC-MK2 cells; type: cell-based; conditions: rhesus monkey, 72 h exposure
Experimental: as §1

COc1cccc(-c2oc(-c3ccc(C(F)(F)F)cc3)nc2C(=O)NCC2CC2)c1 [KB-2777, N-(cyclopropylmethyl)-5-(3-methoxyphenyl)-2-(4-(trifluoromethyl)phenyl)Oxazole-4-Carboxamide]
cytotoxicity in mock-infected cells [1]: without cytotoxicity; also recorded: no overt cytotoxicity | EC50 (HCoV-OC43): 1830 nM | CPE-based cell protection across TOA regimens (HCoV-NL63): reproduced this pattern | host-response transcripts (−ΔΔCt) in infected cells ([2]; OC43-infected MRC-5, OC43 + KB-2777 vs OC43 alone, time-matched): attenuated IL6, IFNB1, ISG15, and selected UPR transcripts; also recorded: attenuated these transcriptional responses | host-response transcripts (−ΔΔCt) in uninfected cells ([2]; uninfected MRC-5, KB-2777 alone vs DMSO): changes were limited and transient | CC50 at 72 h [3]: > 50 µM
